Data on 10 compounds can be found in ChEMBL document CHEMBL3792367, “Synthesis and molecular modeling of antimicrobial active fluoroquinolone-pyrazine conjugates with amino acid linkers” (2016).

In brackets after ≈: the same amount, converted by molar mass.

In assay [1] the test system is Streptococcus pyogenes. Description: Antibacterial activity against Streptococcus pyogenes ATCC 19615 after 18 hrs by agar dilution method. It counts as functional. Particulars: ATCC 19615, 18 h. Background: In agar dilution the substance is mixed into plates at graded concentrations.
Assay [2] deals with Staphylococcus aureus. The experiment in a line: Antibacterial activity against Staphylococcus aureus ATCC 25923 after 18 hrs by agar dilution method. The format is functional. Particulars: ATCC 25923, 18 h.
Assay [3] relates to Salmonella typhi. The experiment in a line: Antibacterial activity against Salmonella typhi ATCC 19430 after 18 hrs by agar dilution method. The format is functional, Salmonella enterica subsp. enterica serovar Typhi. Particulars: Salmonella enterica, ATCC 19430, 18 h.
Assay [4] deals with Pseudomonas aeruginosa. The experiment in a line: Antibacterial activity against Pseudomonas aeruginosa ATCC 27853 after 18 hrs by agar dilution method. It counts as functional. The settings on record: ATCC 27853, 18 h.

By MIC is commonly meant the lowest concentration that inhibits growth of the organism. A lower MIC goes with a more susceptible organism. Regarding `CCn1cc(C(=O)O)c(=O)c2cc(F)c(N3CCN(C(=O)CCNC(=O)c4cnccn4)CC3)cc21`, the MIC in assay [1] stood at 1260 µM (≈ 625 µg/mL); in assay [2] it was 0.628 µM (≈ 0.312 µg/mL); in assay [3] it was 2520 µM (≈ 1250 µg/mL); in assay [4] it was 2520 µM (≈ 1250 µg/mL).
For `O=C(NCCCC(=O)N1CCN(c2cc3c(cc2F)c(=O)c(C(=O)O)cn3C2CC2)CC1)c1cnccn1`, the minimum inhibitory concentration (MIC) in assay [1] stood at 149 µM (≈ 78 µg/mL); in assay [2] it was 0.0746 µM (≈ 0.039 µg/mL); in assay [3] it was 2390 µM (≈ 1250 µg/mL); in assay [4], 597 µM (≈ 312 µg/mL).
The like results for `CCn1cc(C(=O)O)c(=O)c2cc(F)c(N3CCN(C(=O)CCCNC(=O)c4cnccn4)CC3)cc21` were, in that order, 2450 µM (≈ 1250 µg/mL), 2.45 µM (≈ 1.25 µg/mL), 76.4 µM (≈ 39 µg/mL) and 2450 µM (≈ 1250 µg/mL).
The like results for `O=C(O)c1cn(C2CC2)c2cc(N3CCNCC3)c(F)cc2c1=O` [CIPROFLOXACIN] were, in that order, 3770 µM (≈ 1250 µg/mL), 3.77 µM (≈ 1.25 µg/mL), 7.2 µM (≈ 2.39 µg/mL) and 14.5 µM (≈ 4.8 µg/mL).
The like results for `O=C(NCC(=O)N1CCN(c2cc3c(cc2F)c(=O)c(C(=O)O)cn3C2CC2)CC1)c1cnccn1` were, in that order, 2530 µM (≈ 1250 µg/mL), 2.53 µM (≈ 1.25 µg/mL), 2530 µM (≈ 1250 µg/mL) and 2530 µM (≈ 1250 µg/mL).
For `C[C@H](NC(=O)c1cnccn1)C(=O)N1CCN(c2cc3c(cc2F)c(=O)c(C(=O)O)cn3C2CC2)CC1`, the MIC in assay [1] was determined as 2460 µM (≈ 1250 µg/mL); in assay [2], 2.46 µM (≈ 1.25 µg/mL); in assay [3], 2460 µM (≈ 1250 µg/mL); in assay [4], 2460 µM (≈ 1250 µg/mL).
For the compound `CCn1cc(C(=O)O)c(=O)c2cc(F)c(N3CCN(C(=O)CNC(=O)c4cnccn4)CC3)cc21`, the MIC is 1300 µM (≈ 625 µg/mL) in assay [1], 0.648 µM (≈ 0.313 µg/mL) in assay [2], 1300 µM (≈ 625 µg/mL) in assay [3] and 2490 µM (≈ 1200 µg/mL) in assay [4].
Turning to `CCn1cc(C(=O)O)c(=O)c2cc(F)c(N3CCNCC3)cc21` [NORFLOXACIN], the MIC in assay [1] is 1960 µM (≈ 625 µg/mL); in assay [2], 3.91 µM (≈ 1.25 µg/mL); in assay [3], 7.5 µM (≈ 2.4 µg/mL); in assay [4] it was 15 µM (≈ 4.79 µg/mL).
The like results for `O=C(NCCC(=O)N1CCN(c2cc3c(cc2F)c(=O)c(C(=O)O)cn3C2CC2)CC1)c1cnccn1` were, in that order, 614 µM (≈ 312 µg/mL), 0.307 µM (≈ 0.156 µg/mL), 2460 µM (≈ 1250 µg/mL) and 2460 µM (≈ 1250 µg/mL).
The like results for `CCn1cc(C(=O)O)c(=O)c2cc(F)c(N3CCN(C(=O)[C@H](C)NC(=O)c4cnccn4)CC3)cc21` were, in that order, 1260 µM (≈ 625 µg/mL), 0.629 µM (≈ 0.312 µg/mL), 2520 µM (≈ 1250 µg/mL) and 2520 µM (≈ 1250 µg/mL).
